According to ChEMBL document CHEMBL5058564, “EUbOPEN Chemogenomics Library 2 (Incucyte)” (2022):

Assays:
Assay type in all cases: toxicity, cell-based
HEK-293T = experiment: Incucyte cell viability with HEK293T; conditions: human, 10 µM, compound concentration 10 uM
Fibroblast = experiment: Incucyte cell viability with human fibroblast; conditions: 10 µM, compound concentration 10 uM
U2OS = experiment: Incucyte cell viability with U2OS; conditions: human, 10 µM, compound concentration 10 uM
[1] = 0 h, replicate number 1, timepoint 0 hours
[2] = 6 h, replicate number 1, timepoint 6 hours
[3] = 6 h, replicate number 2, timepoint 6 hours
[4] = 12 h, replicate number 2, timepoint 12 hours
[5] = 18 h, replicate number 2, timepoint 18 hours
[6] = 24 h, replicate number 1, timepoint 24 hours
[7] = 24 h, replicate number 2, timepoint 24 hours
[8] = 12 h, replicate number 1, timepoint 12 hours
[9] = 18 h, replicate number 1, timepoint 18 hours
[10] = 0 h, replicate number 2, timepoint 0 hours
Also: unitless GR value; below 1 slowed growth and below 0 cell loss.

Row | SMILES | Growth Rate (HEK-293T; [1]) | Growth Rate (Fibroblast; [1]) | Growth Rate (Fibroblast; [2]) | Growth Rate (Fibroblast; [3]) | Growth Rate (Fibroblast; [4]) | Growth Rate (Fibroblast; [6]) | Growth Rate (U2OS; [1]) | Growth Rate (U2OS; [2]) | Growth Rate (U2OS; [3]) | Growth Rate (U2OS; [5]) | Growth Rate (U2OS; [6]) | Growth Rate (U2OS; [7]) | Growth Rate (HEK-293T; [3]) | Growth Rate (HEK-293T; [6]) | Growth Rate (Fibroblast; [10]) | Growth Rate (Fibroblast; [8]) | Growth Rate (U2OS; [10]) | Growth Rate (U2OS; [4]) | Growth Rate (U2OS; [9]) | Growth Rate (HEK-293T; [10]) | further results
1 | Cc1ccc(F)cc1C(=O)Nc1ccc(C(=O)N2Cc3cccn3Cc3ccccc32)c(Cl)c1 [LIXIVAPTAN] | 0.91 | -0.13 | 0.63 | 0.2 | 0.59 | 0.45 | -0.09 | 0.32 | 0.89 | 0.89 | 0.9 | 0.94 |  |  |  |  |  |  |  |  | Growth Rate (Fibroblast; [5]): 0.75
2 | CC(C)CC(=O)Nc1cncc(-c2ccc3[nH]nc(-c4nc5c(-c6cccc(F)c6)cncc5[nH]4)c3c2)c1 [LORECIVIVINT] |  |  | -0.2 | -0.06 | -0.03 | 0.43 | -0.33 | -0.82 | -0.16 | 0.98 | 0.71 |  | -0.95 | -0.44 | 0.49 | 0.36 | -0.94 | 0.32 | -0.16 |  | Growth Rate (HEK-293T; [2]): -0.81; Growth Rate (HEK-293T; [8]): -0.55; Growth Rate (HEK-293T; [4]): -0.81; Growth Rate (HEK-293T; [9]): -0.48; Growth Rate (HEK-293T; [5]): -0.64; Growth Rate (HEK-293T; [7]): -0.57; Growth Rate (Fibroblast; [9]): 0.73; Growth Rate (Fibroblast; [5]): 0.01; Growth Rate (Fibroblast; [7]): -0.02; Growth Rate (U2OS; [8]): -0.56
3 | CC(=O)NCCc1c(Cc2ccccc2)[nH]c2ccccc12 [LUZINDOLE] |  |  | 0.87 |  |  |  | 0.42 | 0.72 | 0.96 | 0.76 |  | 0.88 | 0.58 |  | 0.86 | 0.94 |  | 0.87 |  |  | Growth Rate (HEK-293T; [8]): 0.96
4 | N[C@@]1(C(=O)O)CO[C@H]2[C@H](C(=O)O)[C@H]21 [LY-379268] | 0.68 |  |  | 0.16 | 0.66 |  | -0.44 |  | 0.99 | 0.92 |  |  | 0.88 |  | 0.44 |  | -0.79 |  |  | 0.79 | 
5 | COc1ccc2[nH]cc(CCNC(C)=O)c2c1 [MELATONIN] | 0.52 | 0.91 |  |  |  |  |  |  |  | 0.85 |  | 0.97 |  | 0.94 | 0.06 |  | 0.55 |  |  | 0.8 | Growth Rate (HEK-293T; [2]): 0.93
6 | CN1C[C@@H](NS(=O)(=O)N(C)C)C[C@@H]2c3cccc4c3c(cn4C)C[C@H]21.Cl [MESULERGINE HYDROCHLORIDE] | 0.52 |  |  | -0.13 | 0.81 |  | 0.87 |  | 0.84 |  |  | 0.99 |  |  |  |  |  |  | 0.99 | 0.55 | Growth Rate (HEK-293T; [4]): 0.91
7 | C[C@]1(O)CC[C@H]2[C@@H]3CCC4=CC(=O)CCC4=C3C=C[C@@]21C [METRIBOLONE] | 0.16 | 0.89 | 0.66 | 0.85 |  | 0.98 |  | 0.83 |  | 0.92 | 0.76 | 0.86 |  | 0.98 | 0.22 | 0.98 | 0.07 | 0.92 | 0.54 | 0.59 | Growth Rate (HEK-293T; [9]): 1; Growth Rate (U2OS; [8]): 0.56
